Assay results reported in PubChem BioAssay (NCI).
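Five compound concentrations were applied to cells in 96-well plates for 48 hours; endpoints were derived by simple linear interpolation of the resulting dose-response curve. Abbreviation: GI50, concentration required for 50% inhibition of growth. TGI: concentration producing complete growth inhibition.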

Tests used:
Experiment in all cases: NCI anticancer screen, dose series, 48 h
HCT-15 colon = tested on: HCT-15 colon
K-562 leukemia = tested on: K-562 leukemia
SK-OV-3 ovarian = tested on: SK-OV-3 ovarian
T-47D breast = tested on: T-47D breast
SN12C renal = tested on: SN12C renal
COLO 205 colon = tested on: COLO 205 colon
MDA-MB-231 breast = tested on: MDA-MB-231 breast
HCC-2998 colon = tested on: HCC-2998 colon
NCI/ADR-RES ovarian = tested on: NCI/ADR-RES ovarian
SF-295 CNS = tested on: SF-295 CNS

SMILES | GI50 (HCT-15 colon) [µM] | TGI (HCT-15 colon) [µM] | GI50 (K-562 leukemia) [µM] | TGI (K-562 leukemia) [µM] | GI50 (SK-OV-3 ovarian) [µM] | TGI (SK-OV-3 ovarian) [µM] | GI50 (T-47D breast) [µM] | TGI (T-47D breast) [µM] | GI50 (SN12C renal) [µM] | TGI (SN12C renal) [µM] | GI50 (COLO 205 colon) [µM] | TGI (COLO 205 colon) [µM] | GI50 (MDA-MB-231 breast) [µM] | TGI (MDA-MB-231 breast) [µM] | GI50 (HCC-2998 colon) [µM] | TGI (HCC-2998 colon) [µM] | GI50 (NCI/ADR-RES ovarian) [µM] | TGI (NCI/ADR-RES ovarian) [µM] | GI50 (SF-295 CNS) [µM] | TGI (SF-295 CNS) [µM]
C=CCCC(O)c1ccc(C(O)CCCCCCCCCCCC)o1 (stereo not given) | 16.2 | 31.6 | 9.29 | 27.2 | > 100 | > 100 | 34.3 | > 100 | 18.3 | 34.2 | 40.5 | > 100 | 20.1 | 38.5 | 21.4 | 37.2 | 20.9 | 45.8 | 36.7 | > 100
CC(C)c1ccc2c(N=Nc3ccc(S(N)(=O)=O)cc3)c(O)[nH]c2c1 | > 22.6 | > 25 | > 25 | > 25 | 7.22 | 19.3 | > 15.3 | > 25 | > 14.8 | > 25 | > 25 | > 25 | 9.17 | > 25 | > 21.1 | > 25 | > 13.5 | > 25 | 11.2 | > 25
CC1(C)CC[C@]2(C(=O)n3ccnc3)CC[C@]3(C)[C@H](C(=O)C=C4[C@@]5(C)C=C(C#N)C(=O)C(C)(C)[C@@H]5CC[C@]43C)[C@@H]2C1 | < 0.01 | 0.0204 | < 0.01 | 0.13 | 0.0347 | 0.317 | 0.0446 | 0.395 | < 0.0177 | 0.0404 | 0.0139 | > 100 | 0.0184 | 0.0682 | < 0.01 | < 0.01 | < 0.01 | 0.0895 | 0.0152 | 0.0975
CCOCCc1c(O)nc(SC)[nH]c1=O | > 100 | > 100 | > 100 | > 100 | > 100 | > 100 | > 100 | > 100 | > 100 | > 100 | > 100 | > 100 | > 100 | > 100 | > 100 | > 100 | > 100 | > 100 | > 100 | > 100
O=C(CSc1nc2ccc([N+](=O)[O-])cc2[nH]1)Nc1cccc(Cl)c1 | 3.06 | 15 | 2.74 | > 100 | 2.03 | 6.45 | 1.55 | 18.9 | 2.46 | 10.8 | 1.92 | 4.27 | 2.12 | 6.55 | 3.17 | 13.6 | 2.41 | 9.13 | 2.07 | 6.8
O=C(/C=C/c1ccccn1)c1ccccc1O | 2.35 | 6.68 | 2.09 | > 100 | 5.54 | 17.9 | 2.45 | 8.36 | 2.8 | 9.36 | 1.69 | 3.3 | 2.8 | 7.5 | 1.7 | 3.07 | 2.87 | 9.07 | 2.23 | 4.67
